These results are taken from ChEMBL document CHEMBL2390828, “Synthesis and biological characterization of spiro[2H-(1,3)-benzoxazine-2,4'-piperidine] based histone deacetylase inhibitors” (Eur J Med Chem, 2013).

The first experiment concerns A549. Nature of the experiment: Cytotoxicity against human A549 cells. It counts as functional, cell-based.
With `O=C(/C=C/c1ccc2c(c1)C(=O)NC1(CCNCC1)O2)NO`, 4810 nM corresponded to half-maximal inhibition (IC50).
With `O=C(/C=C/c1ccc2c(c1)C(=O)N(Cc1ccccc1)C1(CCN(CCc3ccccc3)CC1)O2)NO`, the midpoint of inhibition, the IC50, lay at 1510 nM.
`O=C(/C=C/c1ccc2c(c1)C(=O)N(Cc1ccccc1)C1(CCN(Cc3ccc(F)cc3)CC1)O2)NO`: the midpoint of inhibition, the IC50, lay at 3040 nM.
`CN1C(=O)c2cc(/C=C/C(=O)NO)ccc2OC12CCN(Cc1ccccc1)CC2`: the IC50 (commonly the concentration that gives 50% inhibition) amounted to 2220 nM.
The same measure, in the same setting: for `O=C(/C=C/c1ccc2c(c1)C(=O)N(Cc1ccccc1)C1(CCNCC1)O2)NO` the value was 3190 nM; for `O=C(/C=C/c1ccc2c(c1)C(=O)N(Cc1ccccc1)C1(CCN(Cc3ccccc3)CC1)O2)NO`, 2620 nM.
Turning to `CN1CCC2(CC1)NC(=O)c1cc(/C=C/C(=O)NO)ccc1O2`, the half-inhibitory concentration (IC50) came out at 2700 nM.
Turning to `CN1C(=O)c2cc(/C=C/C(=O)NO)ccc2OC12CCNCC2`, the IC50 was determined as 17900 nM.

Another experiment concerns HCT-116. Nature of the experiment: Cytotoxicity against human HCT116 cells. Type of experiment: functional, cell-based.
`O=C(/C=C/c1ccc2c(c1)C(=O)NC1(CCNCC1)O2)NO` gave an IC50 of 6860 nM.
Compound `O=C(/C=C/c1ccc2c(c1)C(=O)N(Cc1ccccc1)C1(CCN(CCc3ccccc3)CC1)O2)NO` registered an IC50 of 1670 nM.
The same measure, in the same setting: for `O=C(/C=C/c1ccc2c(c1)C(=O)N(Cc1ccccc1)C1(CCN(Cc3ccc(F)cc3)CC1)O2)NO` the value was 2030 nM; for `CN1C(=O)c2cc(/C=C/C(=O)NO)ccc2OC12CCN(Cc1ccccc1)CC2`, 979 nM.
As to `O=C(/C=C/c1ccc2c(c1)C(=O)N(Cc1ccccc1)C1(CCNCC1)O2)NO`, it took 857 nM to reach half-maximal inhibition (IC50).
In turn, `O=C(/C=C/c1ccc2c(c1)C(=O)N(Cc1ccccc1)C1(CCN(Cc3ccccc3)CC1)O2)NO` came in with an IC50 of 1870 nM.
For `CN1CCC2(CC1)NC(=O)c1cc(/C=C/C(=O)NO)ccc1O2`, the midpoint of inhibition, the IC50, lay at 886 nM.
Compound `CN1C(=O)c2cc(/C=C/C(=O)NO)ccc2OC12CCNCC2` returned a concentration for half-maximal inhibition (IC50) of 12100 nM.

In another experiment the test system is K562. Nature of the experiment: Cytotoxicity against human K562 cells. Type of experiment: functional, cell-based.
In turn, `O=C(/C=C/c1ccc2c(c1)C(=O)NC1(CCNCC1)O2)NO` came in with an IC50 of 8930 nM.
Same read-out and setting: then `O=C(/C=C/c1ccc2c(c1)C(=O)N(Cc1ccccc1)C1(CCN(CCc3ccccc3)CC1)O2)NO`, with 1250 nM; and `O=C(/C=C/c1ccc2c(c1)C(=O)N(Cc1ccccc1)C1(CCN(Cc3ccc(F)cc3)CC1)O2)NO`, with 1570 nM.
`CN1C(=O)c2cc(/C=C/C(=O)NO)ccc2OC12CCN(Cc1ccccc1)CC2` had an IC50 of 1330 nM.
Still for that read-out and setting: then `O=C(/C=C/c1ccc2c(c1)C(=O)N(Cc1ccccc1)C1(CCNCC1)O2)NO`, with 1520 nM; and `O=C(/C=C/c1ccc2c(c1)C(=O)N(Cc1ccccc1)C1(CCN(Cc3ccccc3)CC1)O2)NO`, with 1720 nM.
`CN1CCC2(CC1)NC(=O)c1cc(/C=C/C(=O)NO)ccc1O2` had an IC50 of 1490 nM.
`CN1C(=O)c2cc(/C=C/C(=O)NO)ccc2OC12CCNCC2` had an IC50 of 14200 nM.

The target of the next experiment is Histone deacetylase. In words: Inhibition of HDAC in human Hela cell nuclear extract after 15 mins. Type of experiment: protein assay.
In turn, `O=C(/C=C/c1ccc2c(c1)C(=O)NC1(CCNCC1)O2)NO` showed an IC50 of 78 nM.
On the same count and under the same terms, then `O=C(/C=C/c1ccc2c(c1)C(=O)N(Cc1ccccc1)C1(CCN(CCc3ccccc3)CC1)O2)NO`, with 645 nM; and `O=C(/C=C/c1ccc2c(c1)C(=O)N(Cc1ccccc1)C1(CCN(Cc3ccc(F)cc3)CC1)O2)NO`, with 667 nM; and `CN1C(=O)c2cc(/C=C/C(=O)NO)ccc2OC12CCN(Cc1ccccc1)CC2`, with 136 nM.
`O=C(/C=C/c1ccc2c(c1)C(=O)N(Cc1ccccc1)C1(CCNCC1)O2)NO` showed an IC50 of 59 nM.
Same read-out and setting: for `O=C(/C=C/c1ccc2c(c1)C(=O)N(Cc1ccccc1)C1(CCN(Cc3ccccc3)CC1)O2)NO` the value was 540 nM; for `CN1CCC2(CC1)NC(=O)c1cc(/C=C/C(=O)NO)ccc1O2`, 99 nM; for `CN1C(=O)c2cc(/C=C/C(=O)NO)ccc2OC12CCNCC2`, 204 nM.
